How the values were obtained:
[1] = tested on: CaCo-2; test: Neutral red uptake assay on CaCo-2; assay type: cell-based; conditions: Homo sapiens; CaCo-2, 72 h treatment
Experimental: Based on the results obtained for the RPTEC cell line, the following concentrations of 4b–d were chosen to be applied to neoplastic cell lines: 0.1, 1, 10, 25, 50, and 100 µM. A172, AGS, CaCo-2, HeLa, and HepG2 cancer cell lines were used to perform a neutral red uptake assay. The obtained results were compared with a negative control (cell lines incubated without tested compounds), and half-maximal inhibitory concentration (IC50) values were calculated. Cell lines were plated in 96-well plates at a density of 1 × 10^4 cells/well. After 24 h incubation, which allowed the cells to attach and start to proliferate, the culture media were replaced with 4a–d dissolved in the appropriate medium at concentrations of 1, 10, 50, 100, 150 and 200 µM. […] Negative (1% DMSO in medium) and positive (1 µM staurosporine) controls were also included. Plates were incubated at 37 °C for 24, 48, and 72 h before the neutral red uptake assay. The neutral red uptake assay was performed as described by Repetto et al.. Briefly, the medium from all wells was discarded, the attached cells were washed with 100 µL PBS, and then 100 µL of neutral red working solution in medium (40 µg/mL) was added to each well. The neutral red solution was incubated overnight in the same conditions as the cells and centrifuged before being added to the cells. The plates were incubated for at least 2 h at 37 °C, 5% CO2, in a humidified atmosphere. Next, the neutral red medium was removed, and the cells were washed with 100 µL PBS. A 100 µL quantity of destain solution consisting of 50% ethanol, 1% glacial acetic acid, and deionized water was added to each well. Plates were incubated for 30 min with constant shaking on a horizontal shaker at 37 °C. Absorption was measured at 540 nm excitation. The cells’ viability was calculated by comparing results from experimental sets with negative controls according to the formula: % viability=ODtest substance−ODblind/ODnegative control−ODblind×100

[2] = tested on: AGS cells; test: Flow cytometry annexin V/PI staining, cell death pathway, AGS; assay type: cell-based, human; conditions: at IC50, 6, 18 and 24 h
Experimental: To confirm the cell death pathway, another approach to flow cytometry was used. […] Annexin V is a specific PS-binding protein, and thus it is used to detect apoptotic cells. Very few events could be observed in the first and the second quadrant, which represent apoptotic cells. Most events occurred in the third and the fourth quadrant, where unstained and necrotic cells were located. The 24 h measurements after both flow cytometry approaches were consistent with each other. […] Two approaches for flow cytometry were used—FDA/PI staining to determine cell viability and annexin V/PI staining for cell death pathway determination. For cell death pathway determination, cells were plated in 6-well plates at a density of 3 × 10^5 cells/well. […] After 6, 18, and 24 h incubation, adhered and floating cells were harvested, centrifuged at 1600 rpm, and washed with PBS. Next, the cells were washed with 1× annexin-binding buffer, and after centrifugation, cells from each test set were suspended in 100 µL of 1× annexin-binding buffer. To each tube, 5 µL of Alexa Fluor 488-annexin V stain was added, and the cells were incubated in the dark. After 15 min incubation, the cells were centrifuged at 1600 rpm to remove the dye, then suspended in 1 mL of 1× binding buffer and kept on ice. Prior to analysis, cells were stained for 2 min with 1 µM PI. […]

[3] = tested on: A172; test: Microscopic observations, Hoechst 33342 stain, A172; assay type: cell-based, human; conditions: A172, at IC50, 24, 48 and 72 h
Experimental: (§1) In order to obtain information about cells and nuclei morphology, fluorescence microscopy was used. Briefly, after the incubation of A172 and AGS with compound 4b (at three time periods, namely 24, 48, and 72 h) cells were stained with Hoechst 33342 dye, which binds to DNA. Phase-contrast observations were also performed. […] Also, the cell membrane should be intact with a visible halo around the cells. In necrotic cells, the nuclei edges tend to be less clearly defined, and Hoechst 33342 results in a decreased fluorescence signal. This effect can be seen in a1,2 (A172) and b1,2 (AGS). […] To visualize morphological changes which occurred in the treated cells, microscopic observations were conducted using Hoechst 33342 stain. It is a blue fluorescent stain which allows observations of nuclei in eukaryotic cells. Also observations in bright fields were performed. Cells were stained according to the manufacturer’s protocol. Briefly, cells were plated in 12-well plates at a density of 1 × 10^5 cells/well and were incubated for 24 h at 37 °C, 5% CO2 in a humidified atmosphere. Next, cells were treated with 4b at an IC50 and further incubated for 24, 48, and 72 h. For microscopic observations cells were collected, washed with PBS and stained for 15 min with 1 µg/mL Hoechst 33342 dye. […]

[4] = tested on: AGS; test: Microscopic observations, Hoechst 33342 stain, AGS; assay type: cell-based, human; conditions: at IC50, 24, 48 and 72 h
Experimental: as §1

IC50 [1]: > 100 µM
SMILES: Cc1nc(-c2ccccc2)nc(Nc2ccc(F)cc2)c1C=Nc1cccc(Cl)c1 [compound 4b, 5-{[(3-chlorophenyl)imino]methyl}-N-(4-fluorophenyl)-6-methyl-2-phenylpyrimidin-4-amine]
cell death pathway [2]: irreversible cell injury and necrosis
cell and nuclei morphology [3]: leads to necrosis
cell and nuclei morphology [4]: leads to necrosis
